Data published in the supplement of paper PMC10307832.

What was measured:
Assay in all cases: relative viability (nuclei count vs DMSO), 5 days (fraction); higher = more cells survive
RU-SKI 43 = compound: CC[C@@H](C)CNCC(=O)N1CCC2=C([C@@H]1COC3=CC=CC(=C3)C)C=CS2 [RU-SKI 43]
In short: (§1)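 A plate was accepted only when its control CV was below 25% and the cells had doubled at least once. Viability is defined from nuclear counts as treated wells divided by vehicle wells, with the median taken across plates. That median covers lung cancer cell lines grown in 1536-well plates, dosed by pinning at five √10-spaced library-drug concentrations, and counted in MetaXpress from 4× Hoechst images after 5 days.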

Irinotecan = compound: CCc1c2c(nc3ccc(OC(=O)N4CCC(N5CCCCC5)CC4)cc13)-c1cc3c(c(=O)n1C2)COC(=O)[C@]3(O)CC [Irinotecan]
In short: as §1

MK-8033 = compound: Cn1cc(-c2cnc3ccc4ccc(CS(=O)(=O)NCc5ccccn5)cc4c(=O)c3c2)cn1 [MK-8033]
In short: as §1

Irinotecan + Lapatinib = compound: CCc1c2c(nc3ccc(OC(=O)N4CCC(N5CCCCC5)CC4)cc13)-c1cc3c(c(=O)n1C2)COC(=O)[C@]3(O)CC [Irinotecan] + CS(=O)(=O)CCNCc1ccc(-c2ccc3ncnc(Nc4ccc(OCc5cccc(F)c5)c(Cl)c4)c3c2)o1 [Lapatinib] (partner 2 µM)
In short: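 Medians of duplicate plates are given as relative viability. That measure is the nuclei count in treated wells divided by the count in vehicle wells. Counts were taken on 4× images of lung cancer cell lines in 1536-well plates, 5 days after pin-tool dosing the day after seeding with one drug alone or a fixed anchor-drug dose plus five library-drug doses (not always all listed) in √10 steps.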

Cell Line: UMC-11
- relative viability (RU-SKI 43; 0.1 µM): 1.07
- relative viability (RU-SKI 43; 0.3162 µM): 1.11
- relative viability (RU-SKI 43; 1 µM): 1.08
- relative viability (RU-SKI 43; 3.162 µM): 1.07
- relative viability (RU-SKI 43; 10 µM): 0.843
- relative viability (Irinotecan; 0.6325 µM): 0.677
- relative viability (Irinotecan; 2 µM): 0.675
- relative viability (Irinotecan; 6.325 µM): 0.401
- relative viability (Irinotecan; 20 µM): 0.264
- relative viability (MK-8033; 0.02 µM): 0.962
- relative viability (MK-8033; 0.06325 µM): 0.837
- relative viability (MK-8033; 0.2 µM): 0.916
- relative viability (MK-8033; 0.6325 µM): 1
- relative viability (MK-8033; 2 µM): 0.982
- relative viability (Irinotecan + Lapatinib; first compound 0.6325 µM): 0.354
- relative viability (Irinotecan + Lapatinib; first compound 2 µM): 0.452
- relative viability (Irinotecan + Lapatinib; first compound 6.325 µM): 0.259
- relative viability (Irinotecan + Lapatinib; first compound 20 µM): 0.2
